As usually defined, the IC50 is the concentration that inhibits the measured activity by half.

Read-outs that look alike come from different tables or passages of the source. Some results are limits rather than exact numbers.

In assay [1] the test system is PANC-1 pancreatic cancer cells. Briefly: MTS cell viability assay in PANC-1 pancreatic cancer cells. It is filed as cell-based. To be noted: Homo sapiens, PANC-1, 48 hr, 1% DMSO. As for the experimental part:
(§1) Each type of cells (5,000 or 10,000 cells/well) were treated with different concentration (0.1 μM to 10 μM in 1% DMSO of Compound 2 or Compound 22 respectively for 48 hr). Then, MTS assays for cell viability were carried out to determine the IC50 values. Four samples were tested for each test compound at each concentration for each type of cells, and the averaged data were shown in Table 3 and FIG. 5.
On the technique in general: Formazan colour is commonly taken as a measure of viable cells.

Assay [2] concerns Jak2. Briefly: Immunoblot of Jak2 phosphorylation in A2058 cells. Type of assay: cell-based, human. To be noted: A2058, 0.5-5 μM, 4 hr, vs negative control, concentration-associated. As for the experimental part:
(§2) A2058 melanoma cells were incubated in complete growth medium in 100 mm petri dishes (1×10^6 cells per dish) for 24 hr. Compound 2 was added at a concentration of 0.5 μM, 1.0 μM, 2.5 μM, and 5 μM respectively. Cell samples that were not added any Compound 2 were negative controls. After 4 hr, cells were lysed using Laemmli buffer. Differences in the phosphorylation of Her2/Neu, Jak2, Src, Stat3, AKT, and Erk1/2 were determined by immunoblot analysis (FIG. 14a).
(§3) A2058 melanoma cells were incubated in complete growth medium in 100 mm petri dishes (1×10^6 cells per dish) for 24 hr. Compound 2 was added at a concentration of 5 μM. Cell samples that were not added any Compound 2 were negative controls. Cells were lysed using Laemmli buffer 0.5 hr, 1 hr, 2 hr, 4 hr, 6 hr and 24 hr after treatment. Differences in the phosphorylation of Jak2, Src, Stat3, AKT, and Erk1/2 were determined by immunoblot analysis (FIG. 14b).
(In general: In western blotting, separated proteins are transferred to a membrane and probed.)

Assay [3] concerns Erk1/2. Briefly: Immunoblot of Erk1/2 phosphorylation in DU145 cells. It is filed as cell-based. As to conditions: DU145, 0.5-5 μM, 4 hr, EGF 10 ng/ml, vs negative control, concentration-associated. The protocol:
(§4) DU145 prostate cancer cells were incubated in complete growth medium in 100 mm petri dishes (1×10^6 cells per dish) for 24 hr. Compound 2 was added at a concentration of 0.5 μM, 1.0 μM, 2.5 μM, and 5 μM respectively. Cell samples that were not added any Compound 2 were negative controls. After 4 hr, EGF (10 ng/ml final concentration) was added to culture media and cells were lysed using Laemmli buffer. Differences in the phosphorylation of Erk1/2 and EGFR were determined by immunoblot analysis (FIG. 13).

Assay [4] deals with Erk1/2. The assay is described as follows: Immunoblot of Erk1/2 phosphorylation in A2058 cells. As to conditions: A2058, 0.5-5 μM, 4 hr, vs negative control, concentration-associated. It is filed as cell-based, human. The protocol: as §2, §3
The test system of assay [5] is AKT. Briefly: Immunoblot of AKT phosphorylation in A2058 cells. Type of assay: cell-based, human. To be noted: A2058, 0.5-5 μM, 4 hr, vs negative control, concentration-associated. As for the experimental part: as §2, §3
Assay [6] concerns OVCAR5 ovarian cancer cells. The assay is described as follows: MTS cell viability assay in OVCAR5 ovarian cancer cells. Type of assay: cell-based. To be noted: Homo sapiens, OVCAR-5, OVCAR5, 48 hr, 1% DMSO. As for the experimental part:
(§5) Each type of cells (5,000 or 10,000 cells/well) were treated with different concentration (0.1 μM to 20 μM in 1% DMSO of cisplatin or Compound 2, 9, 12, 16 or 22 respectively for 48 hr). Then, MTS assays for cell viability were carried out to determine the IC50 values. Four samples were tested for each test compound at each concentration for each type of cells, and the averaged data were shown in Table 4 and FIGS. 6-8.

The subject of assay [7] is SKOV3 ovarian cancer cells. The assay is described as follows: MTS cell viability assay in SKOV3 ovarian cancer cells. Type of assay: cell-based. To be noted: Homo sapiens, SK-OV-3, SKOV3, 48 hr, 1% DMSO. The protocol: as §5
Assay [8] concerns Src. Briefly: Immunoblot of Src phosphorylation in A2058 cells. It is filed as cell-based, human. As to conditions: A2058, 0.5-5 μM, 4 hr, vs negative control, concentration-associated. The protocol:
as §2, §3

The test system of assay [9] is Stat3. Briefly: Immunoblot of Stat3 phosphorylation in A2058 cells. To be noted: A2058, 0.5-5 μM, 4 hr, vs negative control, concentration-associated. Type of assay: cell-based, human. As for the experimental part: as §2, §3
Assay [10] has as its system DU145 prostate cancer cells. Briefly: MTS cell viability assay in DU145 prostate cancer cells. Type of assay: cell-based. The protocol: (§6) Then, MTS assays for cell viability were carried out to determine the IC50 values. Four samples were tested for each isatin derivative at each concentration in each cell line, and the averaged data were shown in Table 2a and FIGS. 1˜4.
(§7) IC50 of values of isatin derivatives Compounds 101˜123 were determined in cancer cell lines DU145 and A2058 respectively.

For assay [11], the system named is Her2/Neu. The assay is described as follows: Immunoblot of Her2/Neu phosphorylation in A2058 cells. As to conditions: A2058, 0.5-5 μM, 4 hr, vs negative control, concentration-associated. It is filed as cell-based, human. The protocol:
as §2

In assay [12] the test system is A2058 human melanoma cells. Briefly: MTS cell viability assay in A2058 melanoma cells. Type of assay: cell-based. The protocol:
as §6, §7

Assay [13] has as its system EGFR. The assay is described as follows: Immunoblot of EGFR phosphorylation in DU145 cells. Type of assay: cell-based. As to conditions: DU145, 0.5-5 μM, 4 hr, EGF 10 ng/ml, vs negative control, concentration-associated. The protocol: as §4
Assay [14] concerns A2780 cisplatin-resistant ovarian cancer cells. The assay is described as follows: MTS cell viability assay in A2780 cisplatin-resistant ovarian cancer cells. To be noted: for IC50: A2780 cisplatin-resistant, 48 hr, 1% DMSO, MTS. Type of assay: cell-based. As for the experimental part: as §5
Assay [15] deals with OCI-Ly3 non-Hodgkins B cell lymphoma cells. Briefly: MTS cell viability assay in OCI-Ly3 lymphoma cells. Type of assay: cell-based. As to conditions: Homo sapiens, OCI-Ly3, 48 hr, 1% DMSO. As for the experimental part: (§8) Each type of cells (5,000 or 10,000 cells/well) were treated with different concentration (0.01 μM to 5 μM in 1% DMSO of the test compound respectively for 48 hr). Then, MTS assays for cell viability were carried out to determine the IC50 values. Four samples were tested for each test compound at each concentration for each type of cells, and the averaged data were shown in Table 5 and FIGS. 10˜12.

Assay [16] deals with Anaplastic Large T cell lymphoma cells. The assay is described as follows: MTS cell viability assay in anaplastic large T cell lymphoma cells. To be noted: 48 hr, 1% DMSO. It is filed as cell-based. As for the experimental part:
as §8

The subject of assay [17] is Cyclin B1. The assay is described as follows: Immunoblot of Cyclin B1 content in DU145 and A2058 cells. Type of assay: cell-based. As to conditions: DU145 or A2058 cells, 0.1, 1 or 2.5 μM, 24 hr, higher dosage. The protocol: (§9) DU145 prostate cancer cells or A2058 melanoma cells were incubated with Compound 22 at a concentration of 0.1, 1, or 2.5 μM or DMSO for 24 hr. Cells were lysed using Laemmli buffer. The differences in the content of Cyclin B1 and phosphorylation of Cdc25C were determined by immunoblot analysis.

In assay [18] the test system is PaCa2 pancreatic cancer cells. The assay is described as follows: MTS cell viability assay in PaCa2 pancreatic cancer cells. Type of assay: cell-based. To be noted: PaCa-2, PaCa2, 48 hr, 1% DMSO. As for the experimental part: as §1
The subject of assay [19] is tubulin. Briefly: In vitro tubulin polymerization assay (HTS-Tubulin polymerization assay kit). Type of assay: biochemical. To be noted: 1 μM, 4 mg/mL tubulin, 1 hr, 37° C. As for the experimental part:
To determine whether Compound 22 inhibits tubulin formation in vitro, HTS-Tubulin polymerization assay kits (cytoskeleton) were used. The assay procedure was performed using the manufacturer's protocol. Briefly, each 4 mg tubulin was resuspended with 1 mL of the cold G-PEM (80 mM PIPES pH6.9, 2 mM MgCl2, 0.5 mM EGTA) buffer to make the final concentration of 4 mg/mL. The reaction volume was 100 μL. Tubulin polymerization was monitored with the kinetic mode at […] for 1 hr at 37° C. […] Together, compound 22 is a promising lead compound to develop new anticancer drugs as new class of microtubule inhibitors.

The subject of assay [20] is Daudi B Cell Burkitt lymphoma cells. Briefly: MTS cell viability assay in Daudi lymphoma cells. Type of assay: cell-based. As to conditions: Homo sapiens, 48 hr, 1% DMSO. As for the experimental part: as §8
In assay [21] the test system is Cdc25C. Briefly: Immunoblot of Cdc25C phosphorylation in DU145 and A2058 cells. Type of assay: cell-based. To be noted: DU145 or A2058 cells, 0.1, 1 or 2.5 μM, 24 hr, higher dosage. The protocol: as §9
Assay [22] concerns Ly-3 lymphoma SQ xenografts. The assay is described as follows: Ly-3 lymphoma SQ xenografts in mice. Type of assay: in vivo. As to conditions: oral, 100 mg/kg once a day, 7th treatment day, P=0.03 vs vehicle. The protocol: Ly-3 lymphoma cells (1×10^7) were subcutaneously injected to II-2 rg(ko)/NOD-SCID female mice. 7 mice were treated with vehicle as the control group once a day. 7 mice were treated with Compound 109 as the treatment group by oral administration at 100 mg/kg dose, once a day. Mice were euthanized at the 7th treatment day by IACUC of the Beckman Research Institute of City of Hope. In the figure, * means P=0.03 wherein P values less than 0.05 were considered statistically significant.

Where [23] appears, read: Homo sapiens, DU-145, 48 h, DU145, 48 hr, 0.05 to 10 μM in 1% DMSO, MTS (Table 2a), read-out: DU145 IC50.
Setting [24] is: Homo sapiens, A2058, 48 h, 0.05 to 10 μM in 1% DMSO, MTS (Table 2a), read-out: A2058 IC50.

Turning to `O=C1C(=O)N(Cc2ccccc2)c2ccc(-c3cccnc3)cc21` [Compound 2], the IC50 in assay [1] is 0.97 µM; in assay [6] it was 0.8 µM; in assay [7] it was more than 5 µM; in [10] (setting [23]), 0.79 µM; in [12] (setting [24]), 0.78 µM. Further, the “phosphorylation of Jak2” value in assay [2] was “less phosphorylations”. The “phosphorylation of Erk1/2” value in [3] and in assay [4] was “less phosphorylations” in each case. The “phosphorylation of AKT” value in [5] is “less phosphorylations”. Also, the “phosphorylation of Src” value in [8] is “less phosphorylations”. Moreover, the “phosphorylation of Stat3” value in [9] is listed as “less phosphorylations”. Further, the “phosphorylation of Her2/Neu” value in [11] was “less phosphorylations”. The “phosphorylation of EGFR” value in [13] is reported as “less phosphorylations”.
As to `O=C1C(=O)N(CCCc2ccccc2)c2ccc(-c3cccnc3)cc21` [Compound 9], the IC50 was 0.39 µM in assay [14]; 0.75 µM in assay [14] (Homo sapiens, A2780, 48 h); 0.26 µM in assay [15]; 0.84 µM in assay [6]; 0.47 µM in assay [10] (setting [23]); 0.66 µM in assay [12] (setting [24]). Besides, the “viability of A2780 cisplatin-resistant ovarian cancer cells in comparison of cisplatin” value in assay [14] (FIG. 9, compared with cisplatin) was “significantly reduced the viability”.
Turning to `O=C1C(=O)N(Cc2cccs2)c2ccc(-c3cccnc3)cc21` [Compound 12, N-(2-Thienylmethyl)-5-(pyridin-3-yl)indoline-2,3-dione], the IC50 in [14] (Homo sapiens, A2780, 48 h) amounted to 0.9 µM; in assay [6], 2.2 µM; in assay [10] (setting [23]), 0.91 µM; in assay [12] (setting [24]), 2 µM.
Take `O=C1C(=O)N(Cc2ccsc2)c2ccc(-c3cccnc3)cc21` [Compound 16, N-(3-Thienylmethyl)-5-(pyridin-3-yl)indoline-2,3-dione]: the IC50 in assay [14] (Homo sapiens, A2780, 48 h) was 0.5 µM; in assay [6] it was 1.7 µM; in [10] (setting [23]), 0.9 µM; in assay [12] (setting [24]) it was 1.8 µM.
Consider `O=C1C(=O)N(C/C=C/c2ccccc2)c2ccc(-c3cccnc3)cc21` [Compound 22], for which the IC50 in assay [16] is 0.13 µM; in assay [14] (Homo sapiens, A2780, 48 h), 0.44 µM; in assay [1] it was 0.1 µM; in assay [18], 0.096 µM; in [15] it was 0.039 µM; in [6], 0.34 µM. Moreover, the IC50 in [10] (setting [23]) is 0.3 µM; in assay [20], 0.038 µM; in [12] (setting [24]), 0.21 µM. The “content of Cyclin B1” value in assay [17] is “increased amount of Cyclin B1”. In assay [19], the “tubulin polymerization in vitro” value is “substantially inhibited tubulin polymerization”. Further, the “phosphorylation of Cdc25C” value in assay [21] was “less phosphorylation of Cdc25C”.
Consider `O=C1C(=O)N(C/C=C/c2cccnc2)c2ccc(-c3cccnc3)cc21` [Compound 109], for which the “efficacy (tumor volume) in Ly-3 lymphoma SQ xenografts” value in assay [22] was “statistically significantly showed efficacy”. Moreover, the IC50 is 0.063 µM in [15]; 0.48 µM in [10] (DU145, compound in DMSO, 48 hr, MTS (Table 2b), read-out: IC50 value, DMSO, DU145); 0.63 µM in assay [10] (Homo sapiens, DU-145, 48 h, DU145, compound in water, 48 hr, MTS (Table 2b), read-out: IC50 value, Water, DU145); 0.58 µM in assay [12] (A2058, compound in DMSO, 48 hr, MTS (Table 2b), read-out: IC50 value, DMSO, A2058); 1 µM in assay [12] (Homo sapiens, A2058, 48 h, A2058, compound in water, 48 hr, MTS (Table 2b), read-out: IC50 value, Water, A2058).

Source of the values: US9828342B2, “Isatin derivatives, pharmaceutical compositions thereof, and methods of use thereof” (CITY OF HOPE, priority 2012, dated 2017).
